Assay results reported in patent US12280072B2, “Oligosaccharide compound for inhibiting intrinsic coagulation factor X-enzyme complex, and preparation method therefor and uses thereof” (Jiuzhitang Co., Ltd., priority 2017, dated 2025).
Where two headings read alike, the source gives them in different places.

Assays:
Assay type in all cases: biochemical
[1] = target: T1, intrinsic factor Xase (Homo sapiens, UniProt P00740); experiment: Xase inhibitory activity assay
T1 construct: 60 nM FIXa; purchased
Protocol: Xase inhibitory activity assay: Detection was performed according to kit instructions and literature methods by combining the Factor VIII and […]. Specifically, to each well of a 96-well plate, 30 μL of test solution, control solution, or Tris-HCl buffer (negative control) was added, and 30 μl of FVIII (2 IU/ml), 30 μl of R2 (60 nM FIXa, containing FIIa, PC/PS, Ca^2+) were sequentially added, mixed by shaking the plate, incubated at 37° C. for 2 min; and then 30 μL of R1 (50 nM FX, containing direct thrombin inhibitor) was added, mixed by shaking the plate, incubated at 37° C. for 1 min; and then 30 μL of R3 (FXa chromogenic substrate SXa-11, about 8.4 mM) was added. The absorbance at 405 nm (OD405) was detected with a microplate reader, continuously measuring for 7.5 min at a interval of 30 s. The Xase activity and IC50 value of Xase inhibition of the test sample were calculated based on the OD405 change value.
(§1) Data processing: The average value of OD405 detected by the duplicated well was used as the detection value of the test sample and the reference of each concentration, and the slope of the linear fit between the detected value to the time value (the change rate of the absorbance value OD405/min) indicated enzymatic activity of coagulation factor. Taking the clotting factor activity of the negative control well as 100%, coagulation factor activity (percentage) in the presence of the test sample was calculated. The coagulation factor activity in the presence of the test sample was plotted against the concentration of the test sample, and fitted according to the following formula, to calculate the IC50 value: B=(IC50)^n/{(IC50)^n+[I]^n}
(§2) in the formula, B is the coagulation factor activity (percentage) in the presence of the test sample, [I] is the concentration of the test sample, IC50 is the half inhibitory concentration (concentration of the test sample required to inhibit 50% of the activity), and n is the Hill coefficient. • (4) Effect on surface activation and platelet activity: […]

[2] = tested on: plasma; experiment: TT (thrombin time) clotting time
[3] = target: T2, FIIa (Homo sapiens); experiment: HC-II-dependent IIa inhibitory activity assay; details: in presence of HC-II; read-out: Drug concentration required to inhibit 50% of coagulation factor activity (IC50, ng/mL) Ha (HC-II) (converted)
T2 construct: antithrombin (i.e., active coagulation factor IIa)
Protocol: HC-II-dependent IIa inhibitory activity assay: 30 μL of sample, control solution or Tris-HCl buffer (negative control) was added, 30 μL of 1 μM HCII solution was added, and incubated at 37° C. for 2 min; and then 30 μL of 20 NIH/mL FIIa was added, and incubated at 37° C. for 1 min; and finally 30 μL of pre-warmed 4.5 mM FIIa chromogenic substrate CS-01 (38) was added. OD405 was detected by a microplate reader and the IC50 value of FIIa inhibition of each sample was calculated.
as §1, with “B=(IC50)^n/{(IC50)^n+[I]^n} […]” for “B=(IC50)^n/{(IC50)^n+[I]^n}”
T2 sequence (P05546 20-499): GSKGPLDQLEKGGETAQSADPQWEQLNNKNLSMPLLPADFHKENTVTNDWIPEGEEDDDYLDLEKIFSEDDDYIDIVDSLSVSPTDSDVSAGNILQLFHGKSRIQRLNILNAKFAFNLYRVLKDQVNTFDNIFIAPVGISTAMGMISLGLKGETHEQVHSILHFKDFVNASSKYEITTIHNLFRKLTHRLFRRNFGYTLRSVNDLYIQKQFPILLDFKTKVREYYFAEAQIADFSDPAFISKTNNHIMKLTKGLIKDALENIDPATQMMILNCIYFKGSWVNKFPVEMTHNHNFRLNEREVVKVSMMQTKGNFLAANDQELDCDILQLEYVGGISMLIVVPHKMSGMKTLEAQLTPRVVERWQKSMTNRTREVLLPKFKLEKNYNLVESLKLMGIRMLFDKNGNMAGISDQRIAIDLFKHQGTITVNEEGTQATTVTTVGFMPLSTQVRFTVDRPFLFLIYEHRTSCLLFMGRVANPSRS

[4] = target: T3, FIIa (Homo sapiens); experiment: AT-dependent IIa inhibitory activity assay
T3 construct: antithrombin (i.e., active coagulation factor IIa); purchased
Protocol: AT-dependent IIa inhibitory activity assay: Heparin Anti-FIIa kit was used for detection. To a 96-well plate, 30 μL of sample, control solution or Tris-HCl buffer (negative control) was added, and then 30 μL of 1 IU/mL AT solution was added, mixed well by shaking the plate and incubated at 37° C. for 2 min; 30 μL of 24 IU/mL FIIa solution was added, mixed well by shaking the plate and incubated for 2 min at 37° C., and then 30 μL of pre-warmed 1.25 mM FIIa specific chromogenic substrate CS-01 (38) was added, mixed well by shaking the plate. The OD405 was detected by a microplate reader and the IC50 value of FIIa inhibition of each sample was calculated.
as §1, §2
T3 sequence (P01008 33-464): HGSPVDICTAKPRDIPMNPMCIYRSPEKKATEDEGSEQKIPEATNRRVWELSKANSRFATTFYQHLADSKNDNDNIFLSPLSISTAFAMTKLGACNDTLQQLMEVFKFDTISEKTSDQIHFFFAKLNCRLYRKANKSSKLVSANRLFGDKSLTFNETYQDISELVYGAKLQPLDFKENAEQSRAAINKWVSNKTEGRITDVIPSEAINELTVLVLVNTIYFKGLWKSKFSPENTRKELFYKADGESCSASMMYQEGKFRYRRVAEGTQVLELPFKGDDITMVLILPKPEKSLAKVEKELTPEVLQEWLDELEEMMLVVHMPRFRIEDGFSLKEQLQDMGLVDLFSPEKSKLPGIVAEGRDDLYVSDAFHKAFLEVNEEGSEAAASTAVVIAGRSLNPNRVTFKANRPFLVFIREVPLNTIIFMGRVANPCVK

[5] = target: T4, FXa (Homo sapiens); experiment: AT-dependent Xa inhibitory activity assay
T4 construct: 8 μg/mL FXa solution; purchased
Protocol: AT-dependent Xa inhibitory activity assay: Heparin […] kit was used for detection. To a 96-well plate, 30 μL of sample, control solution or Tris-HCl buffer (negative control) was added, then 30 μL of 1 IU/mL AT solution was added, mixed well and incubated at 37° C. for 1 min; and than 30 μL of 8 μg/mL FXa solution was added, mixed well and incubated at 37° C. for 1 min, then 30 μL of pre-warmed 1.25 mM Xa chromogenic substrate SXa-11 was added. OD405 was detected by a microplate reader.
as §1, §2

[6] = tested on: human-controlled plasma; experiment: Anticoagulant activity assay: PT clotting time
Protocol: (§3) 8.2 Methods • (1) Preparation of sample solution: Oligosaccharide compounds A1˜A8, B1˜B11 and oligosaccharide mixtures C1, D1, D2 were all dissolved in Tris-HCl buffer and diluted to the desired series of solubility. • (2) Anticoagulant activity assay: 90 μL of human-controlled plasma was added to the sample or 10 μL of the control solution, and then the clotting time (APTT and PT) was detected by the MC-4000 coagulometer according to the method described in the APTT and PT kit instructions. • (3) Coagulation factor inhibitory activity analysis: […]

[7] = tested on: human-controlled plasma; experiment: Anticoagulant activity assay: APTT clotting time
Protocol: as §3

[8] = read-out: Drug concentration required to inhibit 50% of coagulation factor activity (IC50, ng/mL) Xase (converted)
[9] = in presence of AT; read-out: Drug concentration required to inhibit 50% of coagulation factor activity (IC50, ng/mL) Ha (AT)
[10] = in presence of AT; read-out: Drug concentration required to inhibit 50% of coagulation factor activity (IC50, ng/mL) Xa (AT)
[11] = read-out: Drug concentration required to inhibit 50% of coagulation factor activity (IC50, ng/mL) Xase
[12] = read-out: Drug concentration required to inhibit 50% of coagulation factor activity (IC50, ng/mL) Ha (AT); in presence of AT
[13] = read-out: Drug concentration required to inhibit 50% of coagulation factor activity (IC50, ng/mL) Xa (AT); in presence of AT

T1 sequence (P00740 47-191 limits assumed): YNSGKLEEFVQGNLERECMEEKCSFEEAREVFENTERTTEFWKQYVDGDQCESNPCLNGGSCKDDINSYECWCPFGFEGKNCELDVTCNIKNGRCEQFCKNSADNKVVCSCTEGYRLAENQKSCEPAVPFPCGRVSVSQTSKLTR
T1 sequence (P00740 227-461 limits assumed): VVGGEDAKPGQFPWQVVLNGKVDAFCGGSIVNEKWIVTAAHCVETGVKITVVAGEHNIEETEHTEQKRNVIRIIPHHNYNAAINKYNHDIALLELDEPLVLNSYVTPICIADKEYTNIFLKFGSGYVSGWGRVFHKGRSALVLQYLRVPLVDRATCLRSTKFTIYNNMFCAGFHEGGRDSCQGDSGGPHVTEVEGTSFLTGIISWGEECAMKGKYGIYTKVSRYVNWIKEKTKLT
T4 sequence (P01008 33-464): as the sequence (P01008 33-464) above

Row | Compound | IC50 [1, 8] [nM] | IC50 [3] [nM] | IC50 [4, 9] [nM] | IC50 [5, 10] [nM] | Drug concentration required for multiplication of coagulation time (μg/mL) TT [2] | Drug concentration required for multiplication of coagulation time (μg/mL) PT [6] | Drug concentration required for multiplication of coagulation time (μg/mL) APTT [7] [µg/mL] | IC50 [1, 11] [nM] | IC50 [4, 12] [nM] | IC50 [5, 13] [nM]
1 | CC(=O)N[C@H]1[C@H](O[C@@H]([C@H](O[C@@H]2O[C@@H](C)[C@@H](OS(=O)(=O)O)[C@@H](OS(=O)(=O)O)[C@@H]2O)[C@@H](O)CO)[C@H](O)C(=O)O)O[C@H](COS(=O)(=O)O)[C@H](OS(=O)(=O)O)[C@@H]1O[C@@H]1OC(C(=O)O)=C[C@H](O[C@@H]2O[C@@H](C)[C@@H](OS(=O)(=O)O)[C@@H](OS(=O)(=O)O)[C@@H]2O)[C@H]1O [Compound B1, L-Fuc3S4S-(α1,3)-L-ΔUA-(α1,3)-{D-GalNAc4S6S-(β1,4)-[L-Fuc3S4S-(α1,3)]-D-GlcA-(β1,3)}˜-D-GalNAc4S6S-(β1,4)-[L-Fuc3S4S-(α1,3)]-D-GlcA-ol] | 639 | 530 | > 3760 | > 3760 | # (>128 μg/mL) | # (>128 μg/mL) | 53.9 |  |  | 
2 | CC(=O)NC1C(OC2C(C(=O)O)OC(OC3C(NC(C)=O)C(OC4C(C(=O)O)OC(OC5C(NC(C)=O)C(OC6C(C(=O)O)OC(OC7C(NC(C)=O)C(OC(C(O)C(=O)O)C(OC8OC(C)C(OS(=O)(=O)O)C(OS(=O)(=O)O)C8O)C(O)CO)OC(COS(=O)(=O)O)C7OS(=O)(=O)O)C(O)C6OC6OC(C)C(OS(=O)(=O)O)C(OS(=O)(=O)O)C6O)OC(COS(=O)(=O)O)C5OS(=O)(=O)O)C(O)C4OC4OC(C)C(OS(=O)(=O)O)C(OS(=O)(=O)O)C4O)OC(COS(=O)(=O)O)C3OS(=O)(=O)O)C(O)C2OC2OC(C)C(OS(=O)(=O)O)C(OS(=O)(=O)O)C2O)OC(COS(=O)(=O)O)C(OS(=O)(=O)O)C1OC1OC(C(=O)O)=CC(OC2OC(C)C(OS(=O)(=O)O)C(OS(=O)(=O)O)C2O)C1O [Compound B4, L-Fuc3S4S-(α1,3)-L-ΔUA-(α1,3)-{D-GalNAc4S6S-(β1,4)-[L-Fuc3S4S-(α1,3)]-D-GlcA-(β1,3)}˜-D-GalNAc4S6S-(β1,4)-[L-Fuc3S4S-(α1,3)]-D-GlcA-ol] |  |  |  |  | # (>128 μg/mL) | # (>128 μg/mL) | 4.5 | 5.33 | > 1290 | > 1290
3 | CC(=O)NC1C(OC2C(C(=O)O)OC(OC3C(NC(C)=O)C(OC4C(C(=O)O)OC(OC5C(NC(C)=O)C(OC6C(C(=O)O)OC(OC7C(NC(C)=O)C(OC8C(C(=O)O)OC(OC9C(NC(C)=O)C(OC(C(O)C(=O)O)C(OC%10OC(C)C(OS(=O)(=O)O)C(OS(=O)(=O)O)C%10O)C(O)CO)OC(COS(=O)(=O)O)C9OS(=O)(=O)O)C(O)C8OC8OC(C)C(OS(=O)(=O)O)C(OS(=O)(=O)O)C8O)OC(COS(=O)(=O)O)C7OS(=O)(=O)O)C(O)C6OC6OC(C)C(OS(=O)(=O)O)C(OS(=O)(=O)O)C6O)OC(COS(=O)(=O)O)C5OS(=O)(=O)O)C(O)C4OC4OC(C)C(OS(=O)(=O)O)C(OS(=O)(=O)O)C4O)OC(COS(=O)(=O)O)C3OS(=O)(=O)O)C(O)C2OC2OC(C)C(OS(=O)(=O)O)C(OS(=O)(=O)O)C2O)OC(COS(=O)(=O)O)C(OS(=O)(=O)O)C1OC1OC(C(=O)O)=CC(OC2OC(C)C(OS(=O)(=O)O)C(OS(=O)(=O)O)C2O)C1O [Compound B5, L-Fuc3S4S-(α1,3)-L-ΔUA-(α1,3)-{D-GalNAc4S6S-(β1,4)-[L-Fuc3S4S-(α1,3)]-D-GlcA-(β1,3)}˜-D-GalNAc4S6S-(β1,4)-[L-Fuc3S4S-(α1,3)]-D-GlcA-ol] |  |  |  |  | # (>128 μg/mL) | # (>128 μg/mL) | 4.0 | 4.2 | > 1060 | > 1060

Further lines, with some results ahead:

Row | IC50 [1, 8] [nM] | IC50 [3] [nM] | IC50 [4, 9] [nM] | IC50 [5, 10] [nM] | Compound | Drug concentration required for multiplication of coagulation time (μg/mL) TT [2] | Drug concentration required for multiplication of coagulation time (μg/mL) PT [6] | Drug concentration required for multiplication of coagulation time (μg/mL) APTT [7] [µg/mL] | IC50 [1, 11] [nM] | IC50 [4, 12] [nM] | IC50 [5, 13] [nM]
4 | 1260 | 615 | > 3760 | > 3760 | CC(=O)N[C@H]1[C@H](O[C@H]2[C@H](O[C@@H]3O[C@@H](C)[C@@H](OS(=O)(=O)O)[C@@H](OS(=O)(=O)O)[C@@H]3O)[C@@H](O)C(O)O[C@@H]2C(=O)O)O[C@H](COS(=O)(=O)O)[C@H](OS(=O)(=O)O)[C@@H]1O[C@@H]1OC(C(=O)O)=C[C@H](O[C@@H]2O[C@@H](C)[C@@H](OS(=O)(=O)O)[C@@H](OS(=O)(=O)O)[C@@H]2O)[C@H]1O (stereo partly drawn) [Compound B6, L-Fuc3S4S-(α1,3)-L-ΔUA-(α1,3)-{D-GaNAc4S6S-(β1,4)-[L-Fuc3S4S-(α1,3)]-D-GlcA-(β1,4)}˜-D-GalNAc4S6S-(β1,4)-[L-Fuc3S4S-(α1,3)]-D-GlcA] | # (>128 μg/mL) | # (>128 μg/mL) | 50.2 |  |  | 
5 | 26.3 |  | > 2210 | > 2210 | CC(=O)NC1C(OC2C(C(=O)O)OC(OC3C(NC(C)=O)C(OC4C(C(=O)O)OC(OCc5ccccc5)C(O)C4OC4OC(C)C(OS(=O)(=O)O)C(O)C4OS(=O)(=O)O)OC(COS(=O)(=O)O)C3OS(=O)(=O)O)C(O)C2OC2OC(C)C(OS(=O)(=O)O)C(O)C2OS(=O)(=O)O)OC(COS(=O)(=O)O)C(OS(=O)(=O)O)C1OC1OC(C(=O)O)=CC(OC2OC(C)C(OS(=O)(=O)O)C(O)C2OS(=O)(=O)O)C1O [Compound B9, L-Fuc2S4S-(α1,3)-L-ΔUA-(α1,3)-D-GaNAc4S6S-(D1,4)-[L-Fuc2S4S-(α1,3)]-D-GlcA-(β1,3)-D-GalNAc4S6S-(β1,4)-[L-Fuc2S4S-(α1,3)]-D-1-Benzyl-GlcA-ol] | # (>128 μg/mL) | # (>128 μg/mL) | 7.6 |  |  | 
